Measured values published in patent US8404710B2, “Phosphodiesterase 10A inhibitor” (Kyorin Pharmaceutical Co., Ltd., priority 2002, dated 2013).

What was measured:
PDE11A1 = target: T1, PDE11A1 (Homo sapiens, UniProt Q9HCR9); assay: Inhibition of recombinant human PDE11A1 by ibudilast; format: biochemical
T1 construct: cDNA of full length PDEs, specifically, PDE1A3, PDE2A3, PDE3A, PDE3B, PDE4A4, PDE4B2, PDE4C2, PDE4D3, PDE5A1, PDE5A2, PDE5A3, PDE7A2, PDE8A1, PDE9A2, PDE10A1, and PDE11A1; made in house; host or cells: Sf9 insect cells (baculovirus)

PDE1A3 = target: T2, PDE1A3 (Homo sapiens, UniProt P54750); assay: Inhibition of recombinant human PDE1A3 by ibudilast; format: biochemical
T2 construct: cDNA of full length PDEs, specifically, PDE1A3; made in house; host or cells: Sf9 insect cells (baculovirus)

PDE7A2 = target: T3, PDE7A2 (Homo sapiens, UniProt Q13946); assay: Inhibition of recombinant human PDE7A2 by ibudilast; format: biochemical; conditions: PDE 7A2, substrate cAMP 0.2 μM
T3 construct: cDNA of full length PDEs, specifically, PDE1A3, PDE2A3, PDE3A, PDE3B, PDE4A4, PDE4B2, PDE4C2, PDE4D3, PDE5A1, PDE5A2, PDE5A3, PDE7A2; made in house; host or cells: Sf9 insect cells (baculovirus)

PDE2A3 = target: T4, PDE2A3 (Homo sapiens, UniProt O00408); assay: Inhibition of recombinant human PDE2A3 by ibudilast; format: biochemical; conditions: PDE 2A3, substrate cAMP 2 μM
T4 construct: cDNA of full length PDEs, specifically, PDE1A3, PDE2A3; made in house; host or cells: Sf9 insect cells (baculovirus)

PDE8A1 = target: T5, PDE8A1 (Homo sapiens, UniProt O60658); assay: Inhibition of recombinant human PDE8A1 by ibudilast; format: biochemical; conditions: PDE 8A1, substrate cAMP 0.2 μM
T5 construct: cDNA of full length PDEs, specifically, PDE1A3, PDE2A3, PDE3A, PDE3B, PDE4A4, PDE4B2, PDE4C2, PDE4D3, PDE5A1, PDE5A2, PDE5A3, PDE7A2, PDE8A1; made in house; host or cells: Sf9 insect cells (baculovirus)

PDE4C2 = target: T6, PDE4C2 (Homo sapiens, UniProt Q08493); assay: Inhibition of recombinant human PDE4C2 by ibudilast; format: biochemical; conditions: PDE 4C2, substrate cAMP 2 μM
T6 construct: cDNA of full length PDEs, specifically, PDE1A3, PDE2A3, PDE3A, PDE3B, PDE4A4, PDE4B2, PDE4C2; made in house; host or cells: Sf9 insect cells (baculovirus)

PDE10A1 = target: T7, PDE10A1 (Homo sapiens, UniProt Q9Y233); assay: Inhibition of recombinant human PDE10A1 by ibudilast; format: biochemical
T7 construct: cDNA of full length PDEs, specifically, PDE1A3, PDE2A3, PDE3A, PDE3B, PDE4A4, PDE4B2, PDE4C2, PDE4D3, PDE5A1, PDE5A2, PDE5A3, PDE7A2, PDE8A1, PDE9A2, PDE10A1; made in house; host or cells: Sf9 insect cells (baculovirus)

PDE4D3 = target: T8, PDE4D3 (Homo sapiens, UniProt Q08499); assay: Inhibition of recombinant human PDE4D3 by ibudilast; format: biochemical; conditions: PDE 4D3, substrate cAMP 2 μM
T8 construct: cDNA of full length PDEs, specifically, PDE1A3, PDE2A3, PDE3A, PDE3B, PDE4A4, PDE4B2, PDE4C2, PDE4D3; made in house; host or cells: Sf9 insect cells (baculovirus)

PDE4A4 = PDE4A4 (Homo sapiens, UniProt P27815); assay: Inhibition of recombinant human PDE4A4 by ibudilast; format: biochemical; conditions: PDE 4A4, substrate cAMP 2 μM
PDE9A2 = target: T9, PDE9A2 (Homo sapiens, UniProt O76083); assay: Inhibition of recombinant human PDE9A2 by ibudilast; format: biochemical; conditions: PDE 9A2, substrate cGMP 0.2 μM
T9 construct: cDNA of full length PDEs, specifically, PDE1A3, PDE2A3, PDE3A, PDE3B, PDE4A4, PDE4B2, PDE4C2, PDE4D3, PDE5A1, PDE5A2, PDE5A3, PDE7A2, PDE8A1, PDE9A2; made in house; host or cells: Sf9 insect cells (baculovirus)

PDE3B = target: T10, PDE3B (Homo sapiens, UniProt Q13370); assay: Inhibition of recombinant human PDE3B by ibudilast (Sf9 cell suspension); format: biochemical; conditions: PDE 3B, substrate cAMP 2 μM
T10 construct: cDNA of full length PDEs, specifically, PDE1A3, PDE2A3, PDE3A, PDE3B; made in house; host or cells: Sf9 insect cells (baculovirus); unpurified cell suspension in RIPA buffer

PDE10A = PDE10A (Homo sapiens, UniProt Q9Y233); conditions: human PDE10A gene product; cited from earlier work

T7 sequence (Q9Y233 1-779 isoform Q9Y233-1): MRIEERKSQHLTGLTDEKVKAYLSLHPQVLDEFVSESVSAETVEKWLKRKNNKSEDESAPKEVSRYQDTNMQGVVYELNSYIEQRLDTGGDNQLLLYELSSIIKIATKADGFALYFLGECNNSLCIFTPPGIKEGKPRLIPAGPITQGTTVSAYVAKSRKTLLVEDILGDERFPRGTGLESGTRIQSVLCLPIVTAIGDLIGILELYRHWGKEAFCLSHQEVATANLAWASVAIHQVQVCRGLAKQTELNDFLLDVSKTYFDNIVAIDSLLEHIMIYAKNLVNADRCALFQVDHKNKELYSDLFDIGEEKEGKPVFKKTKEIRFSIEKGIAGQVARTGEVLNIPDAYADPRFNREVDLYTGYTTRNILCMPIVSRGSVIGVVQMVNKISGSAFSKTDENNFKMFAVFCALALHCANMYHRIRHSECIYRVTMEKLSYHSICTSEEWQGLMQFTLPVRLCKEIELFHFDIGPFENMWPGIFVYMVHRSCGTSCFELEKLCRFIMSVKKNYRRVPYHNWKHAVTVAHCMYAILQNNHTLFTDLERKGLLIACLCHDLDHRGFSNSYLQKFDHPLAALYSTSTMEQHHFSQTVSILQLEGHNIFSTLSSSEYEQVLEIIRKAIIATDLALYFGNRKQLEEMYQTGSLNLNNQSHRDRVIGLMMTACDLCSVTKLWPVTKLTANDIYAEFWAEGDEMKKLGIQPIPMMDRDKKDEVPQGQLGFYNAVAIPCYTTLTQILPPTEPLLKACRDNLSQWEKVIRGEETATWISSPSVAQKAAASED
T2 sequence (P54750 whole entry): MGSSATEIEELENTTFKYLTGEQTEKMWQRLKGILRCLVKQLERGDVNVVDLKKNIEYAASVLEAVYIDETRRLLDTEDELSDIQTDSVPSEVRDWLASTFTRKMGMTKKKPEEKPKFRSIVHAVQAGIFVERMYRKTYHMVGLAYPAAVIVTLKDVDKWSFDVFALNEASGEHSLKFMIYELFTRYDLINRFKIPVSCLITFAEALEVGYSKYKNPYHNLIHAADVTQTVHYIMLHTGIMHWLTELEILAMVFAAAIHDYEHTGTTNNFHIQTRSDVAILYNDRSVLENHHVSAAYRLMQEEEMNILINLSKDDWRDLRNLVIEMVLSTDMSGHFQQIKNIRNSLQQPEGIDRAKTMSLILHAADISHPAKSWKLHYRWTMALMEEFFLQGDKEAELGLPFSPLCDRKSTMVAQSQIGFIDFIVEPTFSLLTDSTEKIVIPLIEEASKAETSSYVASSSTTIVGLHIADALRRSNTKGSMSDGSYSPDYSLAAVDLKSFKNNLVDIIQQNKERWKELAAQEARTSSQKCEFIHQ
T1 sequence (Q9HCR9 445-933): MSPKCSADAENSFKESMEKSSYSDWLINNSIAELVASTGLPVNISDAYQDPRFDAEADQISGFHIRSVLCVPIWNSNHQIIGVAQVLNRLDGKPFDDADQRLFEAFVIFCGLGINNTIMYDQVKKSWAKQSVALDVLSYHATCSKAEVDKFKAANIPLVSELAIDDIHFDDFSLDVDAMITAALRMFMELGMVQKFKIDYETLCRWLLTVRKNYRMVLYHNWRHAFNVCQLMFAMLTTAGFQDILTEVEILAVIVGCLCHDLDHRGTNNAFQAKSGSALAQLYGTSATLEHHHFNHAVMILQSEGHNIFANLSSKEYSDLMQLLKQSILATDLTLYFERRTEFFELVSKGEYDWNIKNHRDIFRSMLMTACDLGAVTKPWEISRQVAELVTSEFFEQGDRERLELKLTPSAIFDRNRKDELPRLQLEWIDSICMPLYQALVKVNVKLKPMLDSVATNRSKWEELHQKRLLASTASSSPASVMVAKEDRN
T3 sequence (Q13946 1-456 isoform Q13946-2): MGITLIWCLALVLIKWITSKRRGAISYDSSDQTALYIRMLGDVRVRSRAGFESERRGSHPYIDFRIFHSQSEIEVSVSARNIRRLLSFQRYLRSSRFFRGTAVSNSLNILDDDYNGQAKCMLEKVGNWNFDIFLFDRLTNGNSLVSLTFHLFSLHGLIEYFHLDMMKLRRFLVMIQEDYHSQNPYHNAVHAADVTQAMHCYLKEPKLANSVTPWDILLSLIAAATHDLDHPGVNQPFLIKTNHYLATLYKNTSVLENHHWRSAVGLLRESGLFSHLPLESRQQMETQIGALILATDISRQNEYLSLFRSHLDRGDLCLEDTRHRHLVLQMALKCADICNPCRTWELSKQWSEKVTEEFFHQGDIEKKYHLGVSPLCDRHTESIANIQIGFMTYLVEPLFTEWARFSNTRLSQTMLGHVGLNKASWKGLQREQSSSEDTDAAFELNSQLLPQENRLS
Chain of PDE4A4 (P27815 whole entry): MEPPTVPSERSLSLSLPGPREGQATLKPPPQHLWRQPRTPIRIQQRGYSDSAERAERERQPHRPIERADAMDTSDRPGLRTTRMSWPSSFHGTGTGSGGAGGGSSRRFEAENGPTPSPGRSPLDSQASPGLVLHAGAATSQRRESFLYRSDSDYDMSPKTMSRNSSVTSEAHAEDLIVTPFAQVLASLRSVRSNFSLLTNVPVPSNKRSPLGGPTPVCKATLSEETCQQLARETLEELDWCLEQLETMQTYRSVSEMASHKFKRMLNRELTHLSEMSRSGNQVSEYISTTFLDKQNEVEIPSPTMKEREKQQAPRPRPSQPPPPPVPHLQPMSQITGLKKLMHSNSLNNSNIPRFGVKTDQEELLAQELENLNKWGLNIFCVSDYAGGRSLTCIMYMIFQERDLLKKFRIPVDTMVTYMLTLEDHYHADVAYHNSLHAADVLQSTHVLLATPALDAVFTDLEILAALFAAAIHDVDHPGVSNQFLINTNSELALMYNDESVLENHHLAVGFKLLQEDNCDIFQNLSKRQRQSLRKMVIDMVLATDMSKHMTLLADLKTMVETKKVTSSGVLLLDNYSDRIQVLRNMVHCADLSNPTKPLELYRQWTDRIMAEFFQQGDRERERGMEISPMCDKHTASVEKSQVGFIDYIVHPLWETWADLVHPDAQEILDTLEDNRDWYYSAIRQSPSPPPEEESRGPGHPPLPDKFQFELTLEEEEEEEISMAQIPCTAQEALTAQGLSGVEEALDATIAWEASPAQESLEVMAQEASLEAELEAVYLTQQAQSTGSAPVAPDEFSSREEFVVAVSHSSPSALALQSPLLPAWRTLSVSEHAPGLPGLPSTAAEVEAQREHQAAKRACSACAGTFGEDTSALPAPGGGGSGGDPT
T4 sequence (O00408 whole entry): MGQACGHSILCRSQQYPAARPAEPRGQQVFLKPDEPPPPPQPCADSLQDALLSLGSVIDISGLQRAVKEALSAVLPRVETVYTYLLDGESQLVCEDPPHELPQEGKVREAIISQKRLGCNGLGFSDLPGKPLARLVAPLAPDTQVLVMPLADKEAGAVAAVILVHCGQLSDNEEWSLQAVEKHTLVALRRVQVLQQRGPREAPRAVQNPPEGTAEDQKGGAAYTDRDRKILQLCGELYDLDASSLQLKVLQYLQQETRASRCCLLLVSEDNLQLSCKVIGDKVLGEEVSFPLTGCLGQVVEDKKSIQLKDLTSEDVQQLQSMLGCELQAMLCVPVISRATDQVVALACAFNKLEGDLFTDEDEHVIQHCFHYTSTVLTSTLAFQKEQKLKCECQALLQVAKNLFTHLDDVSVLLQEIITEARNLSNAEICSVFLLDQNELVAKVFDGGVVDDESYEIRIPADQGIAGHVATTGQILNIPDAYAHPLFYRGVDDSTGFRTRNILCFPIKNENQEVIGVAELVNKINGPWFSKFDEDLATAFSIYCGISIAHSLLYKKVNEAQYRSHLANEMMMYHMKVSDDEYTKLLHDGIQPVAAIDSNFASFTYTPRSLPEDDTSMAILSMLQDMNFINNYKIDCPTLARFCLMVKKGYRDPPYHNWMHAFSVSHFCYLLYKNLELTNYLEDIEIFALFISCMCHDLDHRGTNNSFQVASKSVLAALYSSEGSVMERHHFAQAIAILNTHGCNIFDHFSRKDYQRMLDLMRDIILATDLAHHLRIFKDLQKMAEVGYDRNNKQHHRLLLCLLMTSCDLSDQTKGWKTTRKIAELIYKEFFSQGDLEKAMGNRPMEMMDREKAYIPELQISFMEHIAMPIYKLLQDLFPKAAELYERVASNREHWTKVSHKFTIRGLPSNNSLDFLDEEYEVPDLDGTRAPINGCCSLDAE
T9 sequence (O76083 1-533 isoform O76083-2): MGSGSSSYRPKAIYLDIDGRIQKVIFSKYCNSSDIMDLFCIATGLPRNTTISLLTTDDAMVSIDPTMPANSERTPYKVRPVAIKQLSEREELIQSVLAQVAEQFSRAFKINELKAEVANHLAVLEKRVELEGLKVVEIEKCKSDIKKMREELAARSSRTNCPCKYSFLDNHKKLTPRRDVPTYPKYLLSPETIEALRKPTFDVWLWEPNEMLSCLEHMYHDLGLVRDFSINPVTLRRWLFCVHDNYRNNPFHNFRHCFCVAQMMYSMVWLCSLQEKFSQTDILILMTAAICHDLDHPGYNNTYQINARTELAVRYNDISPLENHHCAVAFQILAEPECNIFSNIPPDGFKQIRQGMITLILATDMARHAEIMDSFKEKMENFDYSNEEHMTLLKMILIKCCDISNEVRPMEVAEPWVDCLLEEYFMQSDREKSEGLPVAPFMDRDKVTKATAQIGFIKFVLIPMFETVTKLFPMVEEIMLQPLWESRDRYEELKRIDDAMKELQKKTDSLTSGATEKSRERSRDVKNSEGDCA

SMILES	IC50 (PDE11A1; PDE 11A1, substrate cAMP 2 μM) [µM]	IC50 (PDE11A1; PDE 11A1, substrate cGMP 0.2 μM) [µM]	IC50 (PDE1A3; PDE 1A3, substrate cAMP 2 μM) [µM]	IC50 (PDE1A3; PDE 1A3, substrate cGMP 2 μM) [µM]	IC50 (PDE7A2) [µM]	IC50 (PDE2A3) [µM]	IC50 (PDE8A1) [µM]	IC50 (PDE4C2) [µM]	IC50 (PDE10A1; PDE 10A1, substrate cAMP 0.2 μM) [µM]	IC50 (PDE10A1; PDE 10A1, substrate cGMP 2 μM) [µM]	inhibition of PDE10A1 compared with other PDEs (PDE10A1; in vitro, recombinant human PDE)	IC50 (PDE4D3) [µM]	IC50 (PDE4A4) [µM]	IC50 (PDE9A2) [µM]	IC50 (PDE3B) [µM]	inhibition of PDE10A (PDE10A)
CC(C)C(=O)c1c(C(C)C)nn2ccccc12 [ibudilast, 3-isobutyryl-2-isopropyl pyrazolo[1,5-a]pyridine]	17	36	40	121	115	78	49	11	3	1	particularly strong inhibition	6	6	> 400	266	–
OCCN(CCO)c1nc(N2CCCCC2)c2nc(N(CCO)CCO)nc(N3CCCCC3)c2n1 [dipyridamole]	–	–	–	–	–	–	–	–	–	–	–	–	–	–	–	inhibited
